# Source: US12227512B2, “Benzimidazoles and methods of using same” (priority 2019, dated 2025)
# Like-named read-outs stand apart in the source and are kept apart here.
# Experiments:
# [1] = Neutral Red (Toxicity) of the antiviral screening; conditions: human
# [2] = Neutral Red (Toxicity) of the antiviral screening; conditions: African green monkey
# [3] = system: Dengue virus 2 New Guinea C; assay: In vitro antiviral screening, Visual (Virus yield reduction); conditions: Huh7; for SI90: Visual (Virus yield reduction)/Neutral Red (Toxicity); for EC90: Dengue virus, Visual (Virus yield reduction)
# [4] = system: Zika MR766; assay: as above; conditions: Vero 76; for SI90: Assay No. 3, Visual (Virus yield reduction)/Neutral Red (Toxicity); for EC90: Zika virus
# [5] = system: Dengue virus 2 New Guinea C; assay: In vitro antiviral screening, Neutral Red (Cytopathic effect); conditions: Huh7; for SI50: Neutral Red (Cytopathic effect/Toxicity); for EC50: Dengue virus, Neutral Red (Cytopathic effect)
# [6] = system: Zika MR766; assay: as above; conditions: Vero 76; for SI50: Assay No. 3, Neutral Red (Cytopathic effect/Toxicity); for EC50: Zika virus
# [7] = system: Gli-luciferace activity in the SUFU-KO-light cells; assay: SUFU-KO-Light assay, inhibition of Gli-luciferase activity; assay type: cell-based
# Description: IC50 SUFO-KO-Light values are for inhibition of Gli-luciferace activity in the SUFU-KO-light cells developed by the James Chen laboratory at Stanford University.
# [8] = system: cap-dependent and Myc 5'-UTR cap-independent translation; assay: Dual luciferase Myc 5' UTR translation reporter in Huh 7.5 cells; assay type: cell-based; conditions: Renilla (5' cap) / firefly (Myc 5' UTR) luciferase
# Description: The dual luciferase plasmid construct described by Willis and co-workers was transfected into Huh 7.5 cells. The Renilla luciferase cistron is translated from a 5′ cap, then the Myc 5′ UTR is placed in front of firefly luciferase to evaluate cap-independent translation from the same mRNA. […] This assay is a proxy for c-Myc translation activity. See also Stoneley et al. (2000) Nucleic Acids Res. 28: 687-94.
# [9] = system: Gli-1 and c-Myc; assay: Western blot of Gli-1 and c-Myc in SUFU-KO-Light cells; assay type: cell-based; conditions: 48 hours, immunoblotting
# [10] = system: c-Myc and n-Myc; assay: Western blot for c-Myc and n-Myc in Huh7.5 cells; assay type: cell-based; conditions: 2 μM compound, Western blotting
# Protocol: Referring to FIG. 8, the ability of Isis-11 (racemic) to inhibit c-Myc and n-Myc was evaluated. Huh7.5 cells were treated with 2 μM compound or no compound as a control. The cells were lysed and harvested at the indicated times. Western blotting was performed using antibodies as shown after serial stripping. […] YB-1 is known to be part of a positive feedback loop with Myc and is also affected by Myc inhibition.
# [11] = system: Hedgehog signaling (Gli transcription factors); assay: Hedgehog pathway inhibition, cell-based reporter sensitive to Shh ligand; conditions: read-out: EC50, hedgehog inhibition potency
# [12] = system: Hedgehog signaling (Gli transcription factors); assay: Hedgehog pathway inhibition, cell-based reporter derived from fibroblast SUFU knockouts; conditions: read-out: EC50, hedgehog inhibition potency
# [13] = system: Raji (Burkitt Lymphoma cell line); assay: Raji cell viability / proliferation; conditions: Homo sapiens, read-out: IC50, Raji cell proliferation
# [14] = system: CML CD34+ cells; assay: Colony-forming assay, Chronic Myeloid Leukemia; conditions: for CML CD34+ colony formation: 0 μM = 100
# [15] = system: Rift Valley Fever Virus (RVFV); conditions: reported value; cited from earlier work
# [16] = system: MB002 cells; assay: MTT assay, cell proliferation; assay type: cell-based; conditions: MB002, MTT, dose for Fa=0.5 inhibition (50%)
# [17] = system: SUFU-KO-Light cells expressing Gli-luciferase; assay: Dose-effect curves, dual-Glo luciferase, Compusyn; assay type: cell-based; conditions: SUFU-KO-Light, Gli-luciferase, Fa=0.5
# [18] = Huh-7, Control drug, Assay No. 1
# [19] = Huh-7, Control drug, Assay No. 2
# [20] = inhibition of Gli-luciferase activity, read-out: IC50 (μM) SUFU-KO-Light
structure (smiles),measurement,setting,value
"O=c1cnn([C@@H]2O[C@H](CO)[C@@H](O)[C@H]2O)c(=O)[nH]1 [Compound 6-azauridine, 6-azauridine, reference compound]",CC50,"[1]; Huh7 cells, CC50, Control drug, Assay No. 1, Neutral Red (Cytopathic effect/Toxicity) line",> 100 µg/mL
same,CC50,"[1]; Huh7 cells, CC50, Control drug, Assay No. 1, Neutral Red (Toxicity), line of the virus yield reduction assay",> 100 µg/mL
same,CC50,"[1]; Huh7 cells, CC50, Control drug, Assay No. 2, Neutral Red (Cytopathic effect/Toxicity) line",27 µg/mL
same,CC50,"[1]; Huh7 cells, CC50, Control drug, Assay No. 2, Neutral Red (Toxicity), line of the virus yield reduction assay",27 µg/mL
same,CC50,[2]; Vero 76 cells,26.5 µg/mL
same,SI90,[3]; Assay No. 1,>10
same,SI90,[3]; Assay No. 2,15
same,EC90,[3]; [18],10 µg/mL
same,EC90,[3]; [19],1.8 µg/mL
same,SI90,[4],0
same,EC90,[4],> 26.5 µg/mL
same,SI50,[5]; Assay No. 1,>19
same,SI50,[5]; Assay No. 2,15
same,EC50,[5]; [18],5.3 µg/mL
same,EC50,[5]; [19],1.8 µg/mL
same,SI50,[6],40
same,EC50,[6],0.66 µg/mL
CN(C)CCCn1c(N)nc2ccc3c(c21)CC(CN(C)C)O3 (racemic) [Isis-11],IC50,"[7]; read-out: IC50 (μM) SUFU-KO-Light, inhibition of Gli-luciferase activity",0.2 µM
same,effect on cap-dependent and cap-independent translation,[8],inhibits both cap-dependent and cap-independent translation
same,Gli-1 and c-Myc levels,[9],decrease both Gli-1 and c-Myc
same,c-Myc and n-Myc protein,[10],inhibited at the protein level
same,EC50,[11],~100 nM
same,EC50,[12],~100 nM
same,IC50,[13],500 nM
same,colony formation,[14]; 0.8 μM,completely inhibited
same,CML CD34+ colony formation,"[14]; 14-290, 0.1 μM",91.81
same,CML CD34+ colony formation,"[14]; 14-290, 0.2 μM",19.40
same,CML CD34+ colony formation,"[14]; 14-290, 0.4 μM",12.50
same,CML CD34+ colony formation,"[14]; 14-290, 0.8 μM",0
same,CML CD34+ colony formation,"[14]; 14-290, 1.6 μM",0
same,CML CD34+ colony formation,"[14]; 15-186, 0.1 μM",87.06
same,CML CD34+ colony formation,"[14]; 15-186, 0.2 μM",52.10
same,CML CD34+ colony formation,"[14]; 15-186, 0.4 μM",38.81
same,CML CD34+ colony formation,"[14]; 15-186, 0.8 μM",0
same,CML CD34+ colony formation,"[14]; 15-186, 1.6 μM",0
same,CML CD34+ colony formation,"[14]; AVG, 0.1 μM",89.44
same,CML CD34+ colony formation,"[14]; AVG, 0.2 μM",35.75
same,CML CD34+ colony formation,"[14]; AVG, 0.4 μM",25.66
same,CML CD34+ colony formation,"[14]; AVG, 0.8 μM",0
same,CML CD34+ colony formation,"[14]; AVG, 1.6 μM",0
same,EC50,"[14]; read-out: EC50, CML CD34+ colony formation",~150 nM
same,EC50,"[14]; read-out: EC50, inhibition of colony formation",~150 nM
same,CC50,"[1]; CC50, Assay No. 1, Neutral Red (Cytopathic effect/Toxicity) line",6900 nM
same,CC50,"[1]; CC50, Assay No. 1, Neutral Red (Toxicity), line of the virus yield reduction assay",6900 nM
same,CC50,"[1]; CC50, Assay No. 2, Neutral Red (Cytopathic effect/Toxicity) line",2400 nM
same,CC50,"[1]; CC50, Assay No. 2, Neutral Red (Toxicity), line of the virus yield reduction assay",2400 nM
same,CC50,[2],20000 nM
same,SI90,[3]; Assay No. 1,2.6
same,SI90,[3]; Assay No. 2,6.3
same,EC90,"[3]; Huh-7, Assay No. 1",2700 nM
same,EC90,"[3]; Huh-7, Assay No. 2",380 nM
same,SI90,[4],22
same,EC90,[4],930 nM
same,SI50,[5]; Assay No. 1,3.8
same,SI50,[5]; Assay No. 2,4.9
same,EC50,"[5]; Huh-7, Assay No. 1",1800 nM
same,EC50,"[5]; Huh-7, Assay No. 2",490 nM
same,SI50,[6],23
same,EC50,[6],880 nM
"Cc1sc2c(c1C)C(c1ccc(Cl)cc1)=N[C@@H](CC(=O)OC(C)(C)C)c1nnc(C)n1-2 [JQ1, reference compound]",Gli-1 and c-Myc levels,[9],decrease both Gli-1 and c-Myc
CN(C)CCCn1c(N)nc2ccc(OCCN(C)C)cc21 [Isis-4],IC50,[7]; [20],10 µM
CN(C)CCCn1c(N)nc2ccc3c(c21)CC(CN(C)C)CO3 (stereo not drawn) [Isis-12],IC50,[7]; [20],1.5 µM
Nc1ncnc2c([C@H]3N[C@@H](CO)[C@H](O)[C@@H]3O)c[nH]c12 [BCX4430],EC50,[15],41600 nM
"CC(C)n1nc(-c2ccc3oc(N)nc3c2)c2c(N)ncnc21 [Ink-128, reference compound]",IC50,[16]; read-out: Dose Ink,60 nM
same,EC50,[17]; read-out: EC50 as single agent,6 nM
same,EC50,"[17]; unit from FIG. 15 legend, read-out: Dose Ink",6.13 nM
CN(C)CC1CNc2nc3ccc4c(c3n2C1)CC(CN(C)C)O4 (stereo not drawn) [Isis-075],IC50,[7]; [20],0.36 µM
CN(C)CC1COc2ccc3nc4n(c3c2C1)CC(CN(C)C)CN4 (stereo not drawn) [IBIS-560146],IC50,[7]; [20],> 2 µM
"N.N.[Cl][Pt][Cl] [Cisplatin, reference compound]",IC50,[16]; read-out: Dose Cis,780 nM
